The values below come from patent US7109243B2 (IRM LLC, priority 2003, dated 2006).

The term Ki denotes a measure of affinity in units of concentration, obtained from inhibition or displacement.

In assay [1] the target is Cathepsin S (Homo sapiens, UniProt P25774). Briefly: Cathepsin S inhibition assay (fluorogenic peptide substrate). The following applies: Table II, compounds of Formula I; read-out: Ki Cat. S. It counts as biochemical. The procedure, abridged:
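Ki values come from nonlinear fitting of inhibited hydrolysis rates, taking free and total inhibitor concentrations as equal. Rates measured as rising fluorescence at 380/450 nm after reaction start with 50 μM final acetyl-HPVK-aminocarbamoylcoumarin.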

Assay [2] deals with T1, Cathepsin K (Homo sapiens, UniProt P43235).
T1 sequence (P43235 115-329): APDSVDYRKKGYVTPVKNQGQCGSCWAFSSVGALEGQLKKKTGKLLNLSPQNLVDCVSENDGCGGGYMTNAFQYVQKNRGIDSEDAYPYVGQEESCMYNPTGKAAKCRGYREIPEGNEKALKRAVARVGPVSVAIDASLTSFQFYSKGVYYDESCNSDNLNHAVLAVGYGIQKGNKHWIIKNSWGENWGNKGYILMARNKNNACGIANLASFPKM
Briefly: Cathepsin K inhibition assay (fluorogenic peptide substrate); selectivity ratio vs cathepsin S. It counts as biochemical. As to conditions: ratio of cathepsin K inhibition constant to cathepsin S inhibition constant; Table II. The procedure, abridged: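 Fluorogenic kinetic assay, started with acetyl-Lys-His-Pro-Lys-aminocarbamoylcoumarin at 40 μM final, hydrolysis followed at ex 380/em 450 nm. Apparent inhibition constants from progress curves, converted to competitive inhibition constants. Selectivity expressed as isozyme inhibition constant divided by cathepsin S inhibition constant.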

Chain of Cathepsin S (P25774 115-331, species assumed): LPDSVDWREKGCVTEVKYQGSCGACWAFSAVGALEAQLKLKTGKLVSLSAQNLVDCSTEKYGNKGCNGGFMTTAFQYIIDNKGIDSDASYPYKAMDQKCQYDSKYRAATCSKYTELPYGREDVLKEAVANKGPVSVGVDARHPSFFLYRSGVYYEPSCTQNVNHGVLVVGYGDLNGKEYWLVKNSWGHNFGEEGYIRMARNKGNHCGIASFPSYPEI

In the case of `COc1ccc(NCCNC(=O)[C@H](CC2CCCCC2)NC(=O)c2ccc(OC)cc2)cc1` [Compound 153, (S)-N-{2-Cyclohexyl-1-[2-(4-methoxy-phenylamino)-ethylcarbamoyl]-ethyl}-4-methoxy-benzamide], the Ki in assay [1] was under 0.1 µM. For the same compound, the “Selectivity for Cat. S over Cat. K” value in assay [2] is recorded as “+ (+, >10)”.

Turning to `COc1ccc(NCCNC(=O)[C@H](Cc2ccc(-c3cnc(OC)nc3OC)cc2)NC(=O)c2cccc(C)c2)cc1` [Compound 291, (S)-N-{2-[4-(2,4-Dimethoxy-pyrimidin-5-yl)-phenyl]-1-[2-(4-methoxy-phenylamino)-ethylcarbamoyl]-ethyl}-3-methyl-benzamide], the inhibition constant Ki in assay [1] is under 1 µM. Also, the “Selectivity for Cat. S over Cat. K” value in assay [2] is “++ (++, >100)”.

On to `COc1ccc(NCCNC(=O)[C@H](Cc2ccc(-c3cccc(N)c3)cc2)NC(=O)c2cccc(C)c2)cc1` [Compound 280, (S)-N-{2-(3′-Amino-biphenyl-4-yl)-1-[2-(4-methoxy-phenylamino)-ethylcarbamoyl]-ethyl}-3-methyl-benzamide], for which, in assay [1], the Ki was under 1 µM. In assay [2], the “Selectivity for Cat. S over Cat. K” value was “++ (++, >100)”.

Regarding `COc1ccc(NCCNC(=O)[C@H](CC2CCCCC2)NC(=O)c2cnn(-c3ccc(Cl)cc3)c2C(F)(F)F)cc1` [Compound 116, (S)-1-(4-Chloro-phenyl)-5-trifluoromethyl-1H-pyrazole-4-carboxylic acid {2-cyclohexyl-1-[2-(4-methoxy-phenylamino)-ethylcarbamoyl]-ethyl}-amide], in assay [1], the inhibition constant Ki was under 0.1 µM. For the same compound, in assay [2], the “Selectivity for Cat. S over Cat. K” value is on record as “+++ (+++, >1000)”.

As to `COc1ccc(NCCNC(=O)[C@H](CC2CCCCC2)NC(=O)c2cc(F)ccc2C)cc1` [Compound 157, (S)-N-{2-Cyclohexyl-1-[2-(4-methoxy-phenylamino)-ethylcarbamoyl]-ethyl}-5-fluoro-2-methyl-benzamide], in assay [1], the Ki was under 0.1 µM. In assay [2], the “Selectivity for Cat. S over Cat. K” value is given as “+++ (+++, >1000)”.

Take `COc1ccc(NCCNC(=O)[C@H](Cc2ccc(Cl)cc2)NC(=O)c2ccc(-c3cccc(C(F)(F)F)c3)o2)cc1` [Compound 4, N-((S)-1-(2-(4-methoxyphenylamino)ethylcarbamoyl)-2-(4-chlorophenyl)ethyl)-5-(3-(trifluoromethyl)phenyl)furan-2-carboxamide]: the Ki in assay [1] is under 0.1 µM. In addition, the “Selectivity for Cat. S over Cat. K” value in assay [2] was “+++ (+++, >1000)”.

As for `COc1ccc(NCCNC(=O)[C@H](CCC2CCCCC2)NC(=O)c2ccc3ncsc3c2)cc1` [Compound 137, (S)-Benzothiazole-6-carboxylic acid {3-cyclohexyl-1-[2-(4-methoxy-phenylamino)-ethylcarbamoyl]-propyl}-amide], in assay [1], the Ki was under 0.1 µM. In assay [2], the “Selectivity for Cat. S over Cat. K” value is “+++ (+++, >1000)”.

For `COc1ccc(NCCNC(=O)[C@H](CC2CCCCC2)NC(=O)c2cc(C)c(OCc3ccccc3)c(C)c2)cc1` [Compound 110, (S)-4-Benzyloxy-N-{2-cyclohexyl-1-[2-(4-methoxy-phenylamino)-ethylcarbamoyl]-ethyl}-3,5-dimethyl-benzamide], in assay [1], the Ki is under 0.1 µM. Also, the “Selectivity for Cat. S over Cat. K” value in assay [2] is given as “++ (++, >100)”.

As to `COc1ccc(NCCNC(=O)[C@H](Cc2ccc(-c3cccnc3)cc2)NC(=O)c2cccc(C)c2)cc1` [Compound 274, (S)-N-[1-[2-(4-Methoxy-phenylamino)-ethylcarbamoyl]-2-(4-pyridin-3-yl-phenyl)-ethyl]-3-methyl-benzamide], the Ki in assay [1] is under 0.1 µM. Further, the “Selectivity for Cat. S over Cat. K” value in assay [2] is reported as “+++ (+++, >1000)”.

`COc1ccc(NCCNC(=O)[C@H](CCC2CCCCC2)NC(=O)c2ccc(C#N)cc2)cc1` [Compound 140, (S)-4-Cyano-N-{3-cyclohexyl-1-[2-(4-methoxy-phenylamino)-ethylcarbamoyl]-propyl}-benzamide]: the Ki in assay [1] was under 0.1 µM. Also, in assay [2], the “Selectivity for Cat. S over Cat. K” value is “+++ (+++, >1000)”.

On to `O=C(N[C@@H](CC1CCCCC1)C(=O)NCCNc1ccc(OC(F)(F)F)cc1)C1CC(=O)N(Cc2cccs2)C1` (stereo partly drawn) [Compound 38, 5-Oxo-1-thiophen-2-ylmethyl-pyrrolidine-3-carboxylic acid (S)-{2-cyclohexyl-1-[2-(4-trifluoromethoxy-phenylamino)-ethylcarbamoyl]-ethyl}-amide], for which the inhibitory constant (Ki) in assay [1] was under 0.1 µM. For the same compound, in assay [2], the “Selectivity for Cat. S over Cat. K” value is reported as “++ (++, >100)”.

For the compound `O=C(N[C@@H](CC1CCCCC1)C(=O)NCCNc1ccc(OC(F)(F)F)cc1)c1ccc(OC(F)F)cc1` [Compound 60, N-(S)-{2-cyclohexyl-1-[2-(4-trifluoromethoxy-phenylamino)-ethylcarbamoyl]-ethyl}-4-difluoromethoxy-benzamide], in assay [1], the Ki was under 0.1 µM. The “Selectivity for Cat. S over Cat. K” value in assay [2] is given as “+ (+, >10)”.

On to `COc1cc(OC)nc(-c2ccc(C(=O)N[C@@H](CC3CCCCC3)C(=O)NCCNc3ccc(OC(F)(F)F)cc3)cc2)n1` [Compound 80, N-(S)-{2-cyclohexyl-1-[2-(4-trifluoromethoxy-phenylamino)-ethylcarbamoyl]-ethyl}-4-(4,6-dimethoxy-pyrimidin-2-yl)-benzamide], for which, in assay [1], the Ki is under 1 µM. Further, the “Selectivity for Cat. S over Cat. K” value in assay [2] was “+++ (+++, >1000)”.

Regarding `COc1ccc2[nH]c(C(=O)N[C@@H](CC3CCCCC3)C(=O)NCCNc3ccc(OC(F)(F)F)cc3)cc2c1` [Compound 22, 5-Methoxy-1H-indole-2-carboxylic acid (S)-{2-cyclohexyl-1-[2-(4-trifluoromethoxy-phenylamino)-ethylcarbamoyl]-ethyl}-amide], in assay [1], the Ki is under 1 µM. Also, the “Selectivity for Cat. S over Cat. K” value in assay [2] was “+ (+, >10)”.

In the case of `COc1ccc(NCCNC(=O)[C@H](Cc2ccc(-c3ccc(OC)c(OC)c3)cc2)NC(=O)c2cccc(C)c2)cc1` [Compound 281, (S)-N-{2-(3′,4′-Dimethoxy-biphenyl-4-yl)-1-[2-(4-methoxy-phenylamino)-ethylcarbamoyl]-ethyl}-3-methyl-benzamide], in assay [1], the Ki was under 1 µM. Also, in assay [2], the “Selectivity for Cat. S over Cat. K” value is “++ (++, >100)”.

In the case of `COc1ccc(NCCNC(=O)[C@H](CC2CCCCC2)NC(=O)c2ccc(OCc3ccccc3)cc2)cc1` [Compound 109, (S)-4-Benzyloxy-N-{2-cyclohexyl-1-[2-(4-methoxy-phenylamino)-ethylcarbamoyl]-ethyl}-benzamide], the Ki in assay [1] is under 0.1 µM. Also, in assay [2], the “Selectivity for Cat. S over Cat. K” value was “+++ (+++, >1000)”.

Turning to `Cc1oc(S(=O)(=O)N2CCOCC2)cc1C(=O)N[C@@H](CC1CCCCC1)C(=O)NCCNc1ccc(OC(F)(F)F)cc1` [Compound 49, 2-Methyl-5-(morpholine-4-sulfonyl)-furan-3carboxylic acid (S)-{2-cyclohexyl-1-[2-(4-trifluoromethoxy-phenylamino)-ethylcarbamoyl]-ethyl}-amide], the Ki in assay [1] was under 0.1 µM. In addition, the “Selectivity for Cat. S over Cat. K” value in assay [2] was “++ (++, >100)”.

As to `O=C(N[C@@H](CC1CCCCC1)C(=O)NCCNc1ccccc1C(=O)O)c1ccc(-c2cccc(C(F)(F)F)c2)o1` [Compound 12, 2-[2-(3-Cyclohexyl-2-(S)-{[5-(3-trifluoromethyl-phenyl)-furan-2-carbonyl]-amino}-propionylamino)-ethylamino]-benzoic acid], the Ki in assay [1] is under 0.1 µM. Further, the “Selectivity for Cat. S over Cat. K” value in assay [2] is given as “+ (+, >10)”.

In the case of `CC(C(=O)NC(CC1CCCCC1)C(=O)NCCNc1ccc(F)cc1)c1ccc(F)cc1` (mixture of isomers) [Compound 320, N-(S)-{2-cyclohexyl-1-[2-(4-fluoro-phenylamino)-ethylcarbamoyl]-ethyl}-2-(R,S)-(4-fluoro-phenyl)-propionamide], in assay [1], the inhibition constant (Ki) was under 0.1 µM. Also, the “Selectivity for Cat. S over Cat. K” value in assay [2] is “++ (++, >100)”.

For `O=C(N[C@@H](CC1CCCCC1)C(=O)NCCNc1ccc(F)cc1)c1ccnnc1` [Compound 295, Pyridazine-4-carboxylic acid (S)-{2-cyclohexyl-1-[2-(4-fluoro-phenylamino)-ethylcarbamoyl]-ethyl}-amide], the inhibition constant Ki in assay [1] is under 1 µM. The “Selectivity for Cat. S over Cat. K” value in assay [2] is listed as “++ (++, >100)”.

Regarding `COc1ccc(NCCNC(=O)[C@H](CCc2ccccc2)NC(=O)c2cccc(C)c2)cc1` [Compound 206, (S)-N-{1-[2-(4-Methoxy-phenylamino)-ethylcarbamoyl]-3-phenyl-propyl}-3-methyl-benzamide], the Ki in assay [1] was under 1 µM. Further, the “Selectivity for Cat. S over Cat. K” value in assay [2] was “++ (++, >100)”.

In the case of `COc1ccc(NCCNC(=O)[C@H](CCC2CCCCC2)NC(=O)c2cccc(-c3csc(C)n3)c2)cc1` [Compound 142, (S)-N-{3-Cyclohexyl-1-[2-(4-methoxy-phenylamino)-ethylcarbamoyl]-propyl}-3-(2-methyl-thiazol-4-yl)-benzamide], in assay [1], the Ki was under 0.1 µM. Besides, in assay [2], the “Selectivity for Cat. S over Cat. K” value was “+++ (+++, >1000)”.

As for `COc1ccc(NCCNC(=O)[C@H](Cc2ccc(-c3ccc(Cl)cc3)cc2)NC(=O)c2cccc(C)c2)cc1` [Compound 278, (S)-N-{2-(4′-Chloro-biphenyl-4-yl)-1-[2-(4-methoxy-phenylamino)-ethylcarbamoyl]-ethyl}-3-methyl-benzamide], the Ki in assay [1] is under 1 µM. Moreover, the “Selectivity for Cat. S over Cat. K” value in assay [2] is on record as “++ (++, >100)”.

On to `COc1ccc(NCCNC(=O)[C@H](Cc2ccccc2)NC(=O)c2cc(C)c(OC)c(C)c2)cc1` [Compound 21, (S)-4-Methoxy-N-{1-[2-(4-methoxy-phenylamino)-ethylcarbamoyl]-2-phenyl-ethyl}-3,5-dimethyl-benzamide], for which, in assay [1], the Ki was under 0.1 µM. For the same compound, in assay [2], the “Selectivity for Cat. S over Cat. K” value is recorded as “+ (+, >10)”.
